# Measured values published in patent US11236106B2, “Cycloalkane-1,3-diamine derivative” (Daiichi Sankyo Company, Limited, priority 2018, dated 2022).
# pIC50: −log10 of the molar value. Where a name gives a salt, the structure may show the parent alone. Read-outs that look alike come from different tables or passages of the source.
# Biological target: T1, menin and MLL (menin, Flag tagged; biotinylated MLL1 peptide 1-46aa) (Homo sapiens, UniProt O00255)
# T1 sequence (O00255 1-610): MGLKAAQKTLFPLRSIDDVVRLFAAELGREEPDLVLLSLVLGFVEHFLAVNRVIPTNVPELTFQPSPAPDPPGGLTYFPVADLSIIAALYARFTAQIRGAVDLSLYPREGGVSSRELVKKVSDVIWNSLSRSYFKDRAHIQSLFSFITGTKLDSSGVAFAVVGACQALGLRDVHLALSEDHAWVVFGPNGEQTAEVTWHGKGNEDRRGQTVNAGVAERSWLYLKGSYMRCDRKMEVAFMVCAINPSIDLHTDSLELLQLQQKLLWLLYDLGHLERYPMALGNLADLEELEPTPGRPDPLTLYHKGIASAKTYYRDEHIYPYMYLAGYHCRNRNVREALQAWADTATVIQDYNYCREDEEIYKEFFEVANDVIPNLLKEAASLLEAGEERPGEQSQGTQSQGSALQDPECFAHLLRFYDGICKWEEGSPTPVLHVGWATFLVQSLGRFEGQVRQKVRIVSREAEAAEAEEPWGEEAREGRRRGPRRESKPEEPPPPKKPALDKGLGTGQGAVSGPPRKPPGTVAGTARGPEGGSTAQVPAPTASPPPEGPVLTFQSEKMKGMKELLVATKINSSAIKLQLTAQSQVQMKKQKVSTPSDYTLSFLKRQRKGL
# Assay: biochemical
# Conditions: for IC50: cell free IC50 (nM)
# [1] = IC50, binding inhibitory activity between menin and MLL, AlphaLISA, 1 nM menin, 10 nM biotinylated MLL1 peptide
# [2] = 1 nM menin, 10 nM biotinylated MLL1 peptide, AlphaLISA
# Method: Then, the fluorescence signal by AlphaLISA (registered trademark, PerkinElmer Co., Ltd.) was measured using a plate reader (PerkinElmer Co., Ltd., EnVisionXcite).
structure (smiles),measurement,setting,value
"COc1nc(N(C)[C@H]2C[C@@H](NCc3ccc(-c4cc(OC)c(OC5CCN(S(C)(=O)=O)CC5)nn4)cc3)C[C@H]2O)c2cc(CC(F)(F)F)sc2n1 [Example 118, (1R,2S,4R)-4-({[4-(6-{[1-(methanesulfonyl)piperidin-4-yl]oxy}-5-methoxypyridazin-3-yl)phenyl]methyl}amino)-2-{[2-methoxy-6-(2,2,2-trifluoroethyl)thieno[2,3-d]pyrimidin-4-yl(methyl)amino}cyclopentan-1-ol hydrochloride]",pIC50,[1],9.00
"COc1nc(N(C)[C@H]2C[C@@H](NCc3ccc(-c4cc(OC)c(Cl)nn4)cc3)C[C@H]2O)c2cc(CC(F)(F)F)sc2n1 [Example 90, (1R,2S,4R)-4-({[4-(6-chloro-5methoxypyridazin-3-yl)phenyl]methyl}amino)-2-{[2-methoxy-6-(2,2,2-trifluoroethyl)thieno[2,3-d]pyrimidin-4-yl](methyl)amino}cyclopentan1-ol hydrochloride]",pIC50,,8.92
"C=CS(=O)(=O)NCCCNC(=O)c1ccc(CN[C@H]2CC[C@@H](N(C)c3ncnc4sc(CC(F)(F)F)cc34)C2)cc1 [Example 34, N-{-3-[(ethenesulfonyl)amino]propyl}-4-({[(1S,3R)-3-{methyl[6-(2,2,2-trifluoroethyl)thieno[2,3-d]pyrimidin-4-yl]amino}cyclopentyl]amino}methyl)benzamide hydrochloride]",IC50,[2],413 nM
"CN(c1nc(N)nc2sc(CC(F)(F)F)cc12)[C@H]1C[C@@H](NCc2ccc(-n3ccnc3)cc2)C[C@H]1O [Example 21, (1R,2S,4R)-2-{[2-amino-6-(2,2,2-trifluoroethyl)thieno[2,3-d]pyrimidin-4-yl](methyl)amino}-4-({[4-(1H-imidazol-1-yl)phenyl]methyl}amino)cyclopentan-1-ol Hydrochloride]",IC50,[2],7 nM
"COc1cc(-c2ccc(CN[C@H]3C[C@@H](O)[C@@H](N(C)c4ncnc5sc(CC(F)(F)F)cc45)C3)cc2)nnc1Cl [Example 84, (1R,2S,4R)-4-({[4-(6-chloro-5-methoxypyridazin-3-yl)phenyl]methyl}amino)-2-{methyl[6-(2,2,2-trifluoroethyl)thieno[2,3-d]pyrimidin-4-yl]amino}cyclopentan-1-ol hydrochloride]",pIC50,[1],8.57
"COc1cc(-c2ccc(CN[C@H]3C[C@@H](O)[C@@H](N(C)c4ncncc4Oc4ccc(F)cc4C(=O)N(C(C)C)C(C)C)C3)cc2)nnc1OC [Example 89, 2-[(4-{[(1S,2R,4R)-4({[4-(5,6-dimethoxypyridazin-3-yl)phenyl]methyl}amino)-2-hydroxycyclopentyl](methyl)amino}pyrimidin-5-yl)oxy]-5-fluoro-N,N-di(propan-2-yl)benzamide hydrochloride]",pIC50,[1],8.25
"COc1nc(N(C)[C@H]2C[C@@H](NCc3ccc(-c4cnc(N(C)C)c(OC)c4)cc3)C[C@H]2O)c2cc(CC(F)(F)F)sc2n1 [Example 117, (1R,2S,4R)-4-[({4-[6-(dimethylamino)-5-methoxypyridin-3-yl]phenyl}methyl)amino]-2-{[2-methoxy-6-(2,2,2-trifluoroethyl)thieno[2,3-d]pyrimidin-4-yl](methyl)amino}cyclopentan-1-ol hydrochloride]",pIC50,[1],8.85
"COc1nc(N(C)[C@H]2C[C@@H](NCc3ccc(-c4cc(OC)c(OC)cn4)cc3)C[C@H]2O)c2cc(CC(F)(F)F)sc2n1 [Example 116, (1R,2S,4R)-4-({[4-(4,5-dimethoxypyridin-2-yl)phenyl]methyl}amino)-2-{[2-methoxy-6-(2,2,2-trifluoroethyl)thieno[2,3-d]pyrimidin-4yl](methyl)amino}cyclopentan-1-ol hydrochloride]",pIC50,,9.00
"CN(c1ncnc2sc(CC(F)(F)F)cc12)[C@H]1C[C@@H](NCc2ccc(-n3cnc4ccccc43)cc2)C[C@H]1O [Example 79, (1R,2S,4R)-4-({[4-(1H-benzimidazol-yl)phenyl]methyl}amino)-2-{methyl[6-(2,2,2-trifluoroethyl)thieno[2,3-d]pyrimidin-4-yl]amino}cyclopentan-1-ol hydrochloride]",pIC50,,8.46
"O=C1CCCN1Cc1ccc(CN[C@H]2CCC[C@@H](Nc3ncnc4sc(CC(F)(F)F)cc34)C2)cc1 [Example 38, 1-{[4-({[(1S,3R)-3-{[6-(2,2,2-trifluoroethyl)thieno[2,3-d]pyrimidin-4-yl[amino}cyclohexy]amino}methyl)phenyl]methyl}pyrrolidin-2-one hydrochloride]",IC50,[2],1850 nM
"CN(c1ncnc2sc(CC(F)(F)F)cc12)[C@H]1C[C@@H](NCc2ccc(-c3cnc(Cl)c4cc[nH]c34)cc2)C[C@H]1O [Example 70, (1R,2S,4R)-4-({[4-(4-chloro-1H-pyrrolo[3,2-c]pyridin-7-yl)phenyl]methyl}amino)-2-{methyl[6-(2,2,2-trifluoroethyl)thieno[2,3-d]pyrimidin-4-yl]amino}cyclopentan-1-ol hydrochloride]",pIC50,[1],8.42
"CN(c1ncnc2sc(CC(F)(F)F)cc12)[C@H]1C[C@@H](NCc2cccc(-c3cccnc3)c2)C[C@H]1O [Example 124, (1R,2S,4R)-2-{methyl[6-(2,2,2-trifluoroethyl)thieno[2,3-d]pyrimidin-4-yl]amino}-4-({[3-(pyridin-3-yl)phenyl]methyl}amino)cyclopentan-1-ol hydrochloride]",pIC50,[1],6.74
"COc1cncc(-c2ccc(CN[C@H]3CC[C@@H](N(C)c4ncnc5sc(C6COC6)cc45)C3)cc2)c1 [Example 48, (1R,3S)-N^3-{[4-(5-methoxypyridin-3-yl)phenyl]methyl}-N^1-methyl-N^1-[6-(oxetan-3-yl)thieno[2,3-d]pyrixnidin-4-yl]cyclopentane-1,3-diamine hydrochloride]",IC50,[2],1420 nM
"COc1cc(-c2ccc(CN[C@H]3C[C@@H](OC)[C@@H](N(C)c4ncnc5sc(CC(F)(F)F)cc45)C3)cc2)nnc1OC [Example 127, (1R,3S,4R)—N^1-{[4-(5,6-dimethoxypyridazin-3-yl)phenyl]methyl}-4-methoxy-N^3-methyl-N^3-[6-(2,2,2-trifluoroethyl)thieno[2,3-d]pyrimidin-4-yl]cyclopentane-1,3-diamine Hydrochloride]",pIC50,[1],8.80
"CNc1nc(N(C)[C@H]2C[C@@H](NCc3ccc(-n4ccnc4)cc3)C[C@H]2O)c2cc(CC(F)(F)F)sc2n1 [Example 61, (1R,2S,4R)-4-({[4-(1H-imidazol-1-yl)phenyl]methyl}amino)-2-{methyl[2-(methylamino)-6-(2,2,2-trifluoroethyl)thieno[2,3-d]pyrimidin-4-yl]amino}cyclopentan-1-ol hydrochloride]",IC50,[2],1.9 nM
"CN(c1ncnc2sc(CC(F)(F)F)cc12)[C@H]1C[C@@H](NCc2ccc(-c3cncc4c3cnn4C)cc2)C[C@H]1O [Example 72, (1R,2S,4R)-4-({[4-(1-methyl-1H-pyrazolo[3,4-c]pyridin-4-yl)phenyl]methyl}amino)-2-{methyl[6-(2,2,2-trifluoroethyl)thieno[2,3-d]pyrimidin-4-yl]amino}cyclopentan-1-ol hydrochloride]",pIC50,[1],7.97
"COc1nc(N(C)[C@H]2C[C@@H](NCc3ccc(-c4cc(OC)c(Oc5ccccc5)nn4)cc3)C[C@H]2O)c2cc(CC(F)(F)F)sc2n1 [Example 114, (1R,2S,4R)-4-({[4-(5-methoxy-6-phenoxypyridazin-3-yl)phenyl]methyl}amino)-2-{[2-methoxy-6-(2,2,2-trifluoroethy)thieno[2,3-d]pyrimidin-4-yl](methyl)amino}cyclopentan-1-ol hydrochloride]",pIC50,,8.82
